The target of test [1] is T1, recombinant human α-synuclein (Homo sapiens, UniProt P37840).
T1 construct: made in house; host or cells: E. coli BL21 CodonPlus (DE3)-RIL
Put plainly: In vitro soluble α-synuclein oligomers and sedimentation with lipids (SEC/SDS-PAGE, ANS, 100,000 x g centrifugation). From the text:
Therefore, in this Example it was hypothesized that the delay in fibril formation observed in vitro resulted from a kinetic stabilization of a soluble oligomeric intermediate species. To test this, the nature of the species that form during the lag phase (between 1 and 16 hr) of PC25/GlcCer75-containing reactions were characterized by analytic biochemical methods. Soluble portions of the reaction mixtures were obtained by centrifugation at 100,000×g and analyzed at 1 and 5 hr after the addition of lipids by SEC/SDS-PAGE. […] Further, detected were increased amounts of soluble SDS and heat-stable dimers (36 kDa), trimers (54 kDa), and higher oligomeric species eluting as 36-27 Å-sized particles in PC25/GlcCer75-containing reactions compared to controls (FIG. 7B). […] Syn505 also detected α-synuclein directly on GlcCer tubular structures (FIG. 7G, i and ii) but not on GlcCer-alone reactions (FIG. 7I), indicating an association of misfolded α-synuclein with GlcCer. α-synuclein-GlcCer reactions were further analyzed by 8-anilino-1-napthalene sulfonate (ANS) binding, a fluorescent dye used to detect aggregation-prone conformational intermediates (Stryer, 1965). […]
Oligomers were also detected by 8-anilino-1-napthalene sulfonate (ANS) (Acros #401220050). […]

Test [2] has as its target T1, recombinant human α-synuclein. The experiment in a line: In vitro α-synuclein fibril (amyloid) formation with lipid dispersions, thioflavin T fluorescence. On the procedure:
In this Example, lipid dispersions made of mixtures of purified GlcCer and brain phosphatidylcholines (PCs) were incubated with α-synuclein at physiological conditions (pH 7.4, 37° C.). Electron microscopy (EM) analysis indicated the formation of tubules consisting of polymerized GlcCer (FIGS. 7G-7I), similar to those previously observed in Gaucher cells in patients and mouse models (Lee, PNAS 61: 484, 1968).
However, increasing the amount of GlcCer to 75% while keeping the total lipid amount constant (PC25/GlcCer75) altered the kinetic profile of α-synuclein fibril formation by delaying the formation of insoluble thioT-positive α-synuclein fibrils, extending the lag time from 2 to 16 hr (FIG. 7A).
The fibril assembly phase PC25/GlcCer75-containing reactions occurred between 16 and 24 hr, compared to control reactions where the assembly occurred between 2 and 24 hr. […] The aggregated species formed at the end stage of the fibril-forming reaction, after assembly was completed and equilibrium was reached (at 28 hr) were further analyzed. […]
α-synuclein was expressed in E. coli and purified by boiling followed by HPLC as described previously (Mazzulli et al 2007). […] Fluorescence (ex=430 nm, em=510, 0.1 s) was determined in a Wallac Victor^2 plate reader (Perkin Elmer) in black FluorNunc Maxisorp 96 well plates (Nunc, #475515). […]

The subject of test [3] is α-synuclein. Put plainly: α-synuclein levels by western blot in human midbrain iPS dopamine neurons. Format: cell-based. From the text:
In this Example, it was investigated whether enhancement of lysosomal enzyme trafficking through stimulation of the secretory pathway would result in increased lysosomal function and reduction of α-synuclein. Therefore, in this Example the small GTPase Rab1a polypeptide was overexpressed by lentiviral infection in iPS neurons to stimulate enzyme trafficking. Rab1a polypeptide has been established to function specifically at the ER-Golgi step of the secretory pathway (Duvernay et al., Cell Signal 17: 1457, 2005). The effect of Rab1a polypeptide was determined in human iPS dopamine neurons derived from reprogrammed fibroblasts of a PD patient (Coriell line ND27760). These cells harbor a triplication mutation in the genomic region containing SNCA which encodes for α-synuclein, leading to overexpression of the protein and lysosomal trafficking deficits. […] Further in this Example, it was determined if Rab1a polypeptide enhances lysosomal function by monitoring cathepsin B activity.
(§1) It was also shown in this Example that treatment with the GCase polypeptide activator increased the levels of total GCase protein and increased the post-ER forms, indicating enhancement of flux to the lysosome (FIG. 19B).
(§2) Most materials for SDS-PAGE were obtained from Invitrogen (NuPAGE system). Protein lysates were boiled in sample buffer (20 mM Tris, 1% (v/v) glycerol, 180 mM β-mercaptoethanol, 0.003% (w/v) bromophenol blue, 2% (w/v) SDS, pH 6.8), resolved on 4%-12% Bis-Tris polyacrylamide precast gels in a MOPS-SDS running buffer, or 4%-12% Tris-Glycine gels. 10% Tris-Glycine gels were utilized for some GCase polypeptide western blot's (FIGS. 13B, 13D, and 13E, and FIGS. 14C and 14F). […] Blots were blocked in Odyssey blocking buffer (Li-Cor biosciences) containing 0.05% Tween, or 5% non-fat dry milk in TBS-T 0.2%, followed by incubation with primary antibodies (see above for dilutions), and detected with anti-mouse or -rabbit IgG conjugated to IRDye 680 or 800 (1:10,000, Li-Cor biosciences). […] Any nonspecific bands detected were not included in densitometric analyses. […]

Test [4] deals with T2, GCase polypeptide (Homo sapiens, UniProt P04062).
T2 construct: endogenous in cells; host or cells: human iPS-derived midbrain dopamine neurons (healthy control; PD patient with SNCA triplication, Coriell ND27760)
T2 sequence (P04062 40-536): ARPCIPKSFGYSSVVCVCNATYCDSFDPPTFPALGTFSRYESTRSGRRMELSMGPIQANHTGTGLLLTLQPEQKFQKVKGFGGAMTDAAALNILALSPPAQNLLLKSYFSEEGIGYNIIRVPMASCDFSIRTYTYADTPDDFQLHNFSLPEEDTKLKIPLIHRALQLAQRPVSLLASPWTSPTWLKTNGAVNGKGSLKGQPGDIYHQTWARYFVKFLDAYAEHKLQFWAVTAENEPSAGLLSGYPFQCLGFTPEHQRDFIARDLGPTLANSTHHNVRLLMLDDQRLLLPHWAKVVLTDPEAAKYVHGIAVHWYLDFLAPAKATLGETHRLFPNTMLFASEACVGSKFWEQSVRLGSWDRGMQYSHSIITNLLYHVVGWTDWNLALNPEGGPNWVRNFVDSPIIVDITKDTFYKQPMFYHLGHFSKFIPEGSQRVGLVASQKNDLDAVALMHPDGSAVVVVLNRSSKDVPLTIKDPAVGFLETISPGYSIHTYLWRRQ
The experiment in a line: GCase polypeptide levels and post-ER forms by western blot in human iPS dopamine neurons. Format: cell-based. Particulars: human midbrain iPS dopamine neurons. As to the method: In this Example, human dopamine neurons generated from iPS cells of an unaffected control were treated with a pharmacological chaperone activator of GCase polypeptide, isofagomine (IFG). […] Treatment of wild-type neurons with 100 μM IFG for 5 days followed by 1 day wash-out increased the levels of GCase polypeptide (FIGS. 15A and 15B). This increase was likely due to the fact that wild-type GCase polypeptide was occasionally misfolded in the ER and degraded (about 30% of the total made in the ER), and IFG appeared to also stabilize the wild-type misfolded forms.
as §1
In this Example, the effect of combining the GCase polypeptide pharmacological chaperone IFG with the antioxidant n-acetyl-cysteine (NAC) on GCase polypeptide maturation in PD iPS neurons was tested. Neurons were treated with either IFG, NAC, or IFG and NAC together, and GCase polypeptide maturation was analyzed by western blot.
as §2

For test [5], the system named is Hela cells. Put plainly: Lysosomal proteolysis by radioactive pulse-chase in transfected Hela cells. In kind it is cell-based. On the procedure:
Further in this Example, it was assessed whether GCase polypeptide overexpression had the ability to directly enhance lysosomal proteolysis in a non-neuronal cell line. Hela cells were transfected with a myc-tagged GCase polypeptide expression construct and lysosomal proteolysis was assessed by radioactive pulse-chase (FIG. 17A). […] This effect was also confirmed through a different assay, by measuring the effect of GCase polypeptide overexpression on the activity of the lysosomal protease cathepsin B. A cell-permeable fluorescent-tagged cathepsin B substrate (MAGIC RED cathepsin detection kit, Immunochemistry Technologies) was added to transfected Hela cells, and degradation of this substrate was determined in living cells after substrate wash-out.

The subject of test [6] is primary cortical neurons. The experiment in a line: Proteolysis of long-lived proteins by radioactive pulse-chase in primary cortical neurons. In kind it is cell-based, mouse. The settings on record: added to GCase polypeptide KD. As to the method:
In this Example, a test was conducted to determine whether GCase polypeptide KD affects a lysosomal degradation pathway. In this test, neurons were treated with the well-established lysosomal inhibitors ammonium chloride (NH4Cl) and leupeptin.
Proteolysis of long-lived proteins was determined by radioactive pulse-chase using ^3H-leucine. This procedure was performed as described previously (Kaushik et al. Methods Enzymol. 452: 297, 2009). Briefly, cortical cells were grown in 24 well clusters seeded at 33000 cells/well and infected at moi 3 with scrb or GCase polypeptide shRNA expressing lentiviral vectors. On dpi 4, ^3H-leucine (PerkinElmer, # NET460A001 MC, final 5 μCi/ml) was added in standard neurobasal medium containing B27 for 2 days to trace label proteins. […] Samples were centrifuged at 20,000×g for 20 min, 4° C., and the radioactivity was measured in 5 ml of scintillation cocktail using a Beckman LS 1701 liquid scintillation counter (Beckman Instruments). Precipitated protein pellets were extracted in 200 μl of Na deoxycholate, 0.1 M NaOH, and radioactivity was determined. Percent proteolysis was calculated as described in detail elsewhere (Kaushik et al. Methods Enzymol. 452: 297, 2009). […]

In the case of Glucosyl (β) Ceramide [GlcCer], in test [1] (pH 5.0, 28 hr), the “amount of pelletable α-synuclein protein (100,000×g sedimentation)” value was “no effect”. Further, in test [2] (pH 5.0), the “maximal thioT signal at the end stages, fold higher compared to control reactions” value was 2- to 3 fold. Also, the α-synuclein fibril formation result in test [2] (physiological conditions, pH 7.4, 37° C.) is “no effect”.

With “monosialotetrahexosylganglioside [ganglioside GM1]”, in test [1] (pH 5.0, 15 hr incubation, 10:1 lipid:protein ratio), the “soluble α-synuclein oligomers compared to α-synuclein alone” value is “dramatic stabilization and elevation”.

As for `C#Cc1ccc(NC(=O)c2cnn3c(C)cc(C)nc23)cc1` [NCGC00188758], in test [3] (neurons from a PD patient with triplication of the SNCA genomic region), the α-synuclein protein levels result was “dose-dependent decrease”. Moreover, the α-synuclein protein levels result in test [3] (neurons from healthy unaffected controls) is reported as “dose-dependent decrease”. In test [4], the “levels of total GCase protein” value is on record as “increased” and the “post-ER forms of GCase” value is listed as “increased”.

For the compound `Cl.N` [ammonium chloride], the “effect of lysosomal inhibitors on the proteolysis increase by GCase polypeptide overexpression” value in test [5] is on record as “completely reversed”. Besides, the “proteolysis of long-lived proteins in GCase polypeptide shRNA-treated cells” value in test [6] is “did not additively inhibit”.

The values are drawn from patent US9845327B2, “Treatment of proteinopathies” (THE GENERAL HOSPITAL CORPORATION, priority 2011, dated 2017).
